Assay results published in the NIST ThermoML archive (doi:10.1016/j.tca.2019.178383).

Assay: xn = mol fraction of the nth substance listed
Settings: for surface tension liquid-gas: Maximal bubble pressure; for mass density: 100 kPa, Liquid, Vibrating tube method

CCn1cc[n+](CCOC)c1.O=S(=O)([O-])C(F)(F)F + CCO
Settings | mass density [kg/m3] | surface tension liquid-gas [mN/m]
288.15 K, x1 = 0.0996 | 965.057 | 23.1
288.15 K, x1 = 0.1999 | 1071.98 | 24.2
288.15 K, x1 = 0.2996 | 1144.79 | 25.6
288.15 K, x1 = 0.3984 | 1196.95 | 27.1
288.15 K, x1 = 0.4991 | 1237.58 | 28.7
288.15 K, x1 = 0.6026 | 1270.25 | 30.5
288.15 K, x1 = 0.6991 | 1295.01 | 31.8
288.15 K, x1 = 0.797 | 1315.78 | 33.4
288.15 K, x1 = 0.8995 | 1333.85 | 34.9
288.15 K, x1 = 1 | 1348.94 | 36.3
293.15 K, x1 = 0.0996 | 960.722 | 22.6
293.15 K, x1 = 0.1999 | 1067.62 | 23.8
293.15 K, x1 = 0.2996 | 1140.44 | 25.2
293.15 K, x1 = 0.3984 | 1192.61 | 26.7
293.15 K, x1 = 0.4991 | 1233.26 | 28.3
293.15 K, x1 = 0.6026 | 1265.94 | 30.1
293.15 K, x1 = 0.6991 | 1290.72 | 31.4
293.15 K, x1 = 0.797 | 1311.49 | 33.1
293.15 K, x1 = 0.8995 | 1329.57 | 34.7
293.15 K, x1 = 1 | 1344.66 | 36.1
298.15 K, x1 = 0.0996 | 956.38 | 22.1
298.15 K, x1 = 0.1999 | 1063.27 | 23.3
298.15 K, x1 = 0.2996 | 1136.09 | 24.8
298.15 K, x1 = 0.3984 | 1188.29 | 26.3
298.15 K, x1 = 0.4991 | 1228.95 | 27.9
298.15 K, x1 = 0.6026 | 1261.65 | 29.7
298.15 K, x1 = 0.6991 | 1286.44 | 31.1
298.15 K, x1 = 0.797 | 1307.22 | 32.8
298.15 K, x1 = 0.8995 | 1325.31 | 34.4
298.15 K, x1 = 1 | 1340.41 | 35.8
303.15 K, x1 = 0.0996 | 952.028 | 21.6
303.15 K, x1 = 0.1999 | 1058.92 | 22.8
303.15 K, x1 = 0.2996 | 1131.76 | 24.4
303.15 K, x1 = 0.3984 | 1183.97 | 25.8
303.15 K, x1 = 0.4991 | 1224.66 | 27.5
303.15 K, x1 = 0.6026 | 1257.38 | 29.3
303.15 K, x1 = 0.6991 | 1282.19 | 30.7
303.15 K, x1 = 0.797 | 1302.98 | 32.5
303.15 K, x1 = 0.8995 | 1321.08 | 34.1
303.15 K, x1 = 1 | 1336.17 | 35.5
308.15 K, x1 = 0.0996 | 947.665 | 21.2
308.15 K, x1 = 0.1999 | 1054.56 | 22.3
308.15 K, x1 = 0.2996 | 1127.43 | 23.9
308.15 K, x1 = 0.3984 | 1179.66 | 25.4
308.15 K, x1 = 0.4991 | 1220.38 | 27.1
308.15 K, x1 = 0.6026 | 1253.12 | 28.9
308.15 K, x1 = 0.6991 | 1277.95 | 30.3
308.15 K, x1 = 0.797 | 1298.75 | 32
308.15 K, x1 = 0.8995 | 1316.86 | 33.8
308.15 K, x1 = 1 | 1331.96 | 35.3
313.15 K, x1 = 0.0996 | 943.285 | 20.8
313.15 K, x1 = 0.1999 | 1050.2 | 21.8
313.15 K, x1 = 0.2996 | 1123.1 | 23.5
313.15 K, x1 = 0.3984 | 1175.37 | 25
313.15 K, x1 = 0.4991 | 1216.11 | 26.7
313.15 K, x1 = 0.6026 | 1248.89 | 28.6
313.15 K, x1 = 0.6991 | 1273.73 | 30
313.15 K, x1 = 0.797 | 1294.54 | 31.8
313.15 K, x1 = 0.8995 | 1312.66 | 33.5
313.15 K, x1 = 1 | 1327.77 | 35.1
318.15 K, x1 = 0.0996 | 938.889 | 20.3
318.15 K, x1 = 0.1999 | 1045.85 | 21.4
318.15 K, x1 = 0.2996 | 1118.78 | 23
318.15 K, x1 = 0.3984 | 1171.08 | 24.6
318.15 K, x1 = 0.4991 | 1211.87 | 26.3
318.15 K, x1 = 0.6026 | 1244.66 | 28.2
318.15 K, x1 = 0.6991 | 1269.52 | 29.6
318.15 K, x1 = 0.797 | 1290.35 | 31.5
318.15 K, x1 = 0.8995 | 1308.47 | 33.2
318.15 K, x1 = 1 | 1323.6 | 34.9
